Test results from patent publication US7202040B2, “Method for screening compounds which change the binding properties of a protein with a ligand” (Takeda Pharmaceutical Company Limited, priority 2001, dated 2007).

Tests used:
[1] = test system: other receptor expression cells; experiment: cAMP production inhibitory activity on other receptor expression cells (specificity check); format: cell-based; conditions: receptor-specific
Experimental: The amino acid sequence of GPR34 is known to have low homology to the amino acid sequence of the platelet-activating factor receptor or the uridine diphosphate glycoside. Thus, various compounds including platelet-activating factor and uridine diphosphate glycoside, which are ligands to the receptors showing homology to GPR34, were administered to the GPR34-expressed CHO cells to examine the cAMP production inhibitory activity of these compounds on the GPR34-expressed CHO cells by the method shown in (1-4) described above.
The effect was not noted on the other receptor expression cells but was receptor-specific.

[2] = target: T1, GPR34-expressed CHO cells (Homo sapiens, UniProt Q9UPC5); experiment: Intracellular cAMP production inhibitory activity using GPR34-expressed CHO cells (forskolin-stimulated, cAMP EIA); format: cell-based; conditions: 2 μM forskolin, FIG. 1
T1 construct: expressed in transfected cells
T1 sequence (Q9UPC5 whole entry): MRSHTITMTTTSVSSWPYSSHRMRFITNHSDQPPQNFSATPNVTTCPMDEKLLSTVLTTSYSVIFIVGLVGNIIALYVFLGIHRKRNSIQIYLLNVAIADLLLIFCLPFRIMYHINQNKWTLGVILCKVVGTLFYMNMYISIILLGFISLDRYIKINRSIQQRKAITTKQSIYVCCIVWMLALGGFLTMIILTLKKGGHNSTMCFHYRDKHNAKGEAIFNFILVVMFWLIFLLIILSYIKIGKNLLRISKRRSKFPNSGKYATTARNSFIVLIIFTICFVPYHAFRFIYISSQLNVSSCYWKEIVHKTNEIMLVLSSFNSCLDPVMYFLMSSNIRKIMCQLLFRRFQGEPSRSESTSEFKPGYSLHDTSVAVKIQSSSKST
Experimental: The GPR34-expressed CHO cells prepared in (1-2) described above and selected in (1-2) described above were plated on a 24-well plate in 6×10^4 cells/well followed by incubation for 48 hours. The cells were washed with αMEM medium (pH 7.5) containing 0.2 mM 3-isobutyl-methylxanthine, 0.05% BSA and 20 mM HEPES (hereinafter αMEM medium (pH 7.5) containing 0.2 mM 3-isobutyl-methylxanthine, 0.05% BSA and 20 mM HEPES is referred to as the reaction buffer). Thereafter, 0.5 mL of the reaction buffer was added and the mixture was kept warm for 30 minutes in an incubator. The reaction buffer was removed and 0.25 mL of fresh reaction buffer was replenished to the cells. Then, 0.25 mL of the reaction buffer containing a sample and 2 μM forskolin was added to the cells, followed by reacting at 37° C. for 30 minutes. […] The cAMP level in the extract was quantified using the same kit. Based on this measurement data, the cAMP production inhibitory activity was calculated based on the equation shown below and expressed in terms of percentage to the control group. The activity in the group added with sample was calculated using each control value set on the same plate. % of control=(X−C)/(T−C)×100 wherein • X: cAMP level in the group added with sample • T: mean value of the cAMP levels in 3 wells of the groups without sample addition and with forskolin stimulation […]

Substance	cAMP production inhibitory effect on other receptor expression cells [1]	cAMP production inhibitory activity ([2]; 37° C. 30 minutes)	cAMP production inhibitory activity ([2]; in a higher concentration)
lysophosphatidylserine	not noted	marked activities	–
phosphatidylserine	not noted	–	marked activities
